# Reference: the supplement of paper PMC11208160
# Assay: recombinant barcode read abundance after kanamycin selection (control-corrected) (log10(CPM+1)); higher = more efficient recombination; sequences stand for … in AGTGCAGAGAAAATCGGCCAGTTTTCTCTGCCTGCAGTCCGCATGCCGT…AGATTTATGCAGCGGACTGCCTTTCTCCCAAAGTGATAAACCGGACAGTATCATGGACCGGTTTTCCCGGTAATCCGTATTTGCAAGGTTGGTTTCACT; site = the 11-nt target
# Summary of the method: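 In a pooled screen in E. coli, targets were paired with target-binding loops of the IS621 bridge RNA. Each oligo carried a promoter, a target, a barcode and the first 104 bridge RNA bases driven by J23119, and was Gibson-cloned into a vector holding the remaining 73 bp and a T7-inducible recombinase before co-electroporation with a donor plasmid. Duplicate platings went onto chloramphenicol/ampicillin LB agar as the control or onto chloramphenicol/ampicillin/kanamycin with 0.1 mM IPTG. Recombination efficiency is the averaged, control-corrected count per million of barcodes at recombinant junctions, given as log10(CPM+1).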
# 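Further: IS621 recombinase and bridge RNA in Escherichia coli cells.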
row,Sequence,recombinant barcode read abundance (log10)
1,GGTTGTCCTTGGGTTCTAACCTGTTGCGG (site GGTTGACCTCC),0.237
2,GGTTGTCCTTGGGTTCTAACCTGTTGCGG (site GGTTGCCCTCC),0.0684
3,GGTTGTCCTTGGGTTCTAACCTGTTGCGG (site GGTTGGCCTCC),0.109
4,GGTTGTCCTTGGGTTCTAACCTGTTGCGG (site GGTTGTCCTCC),1.2
5,GGTTGTCCTTGGGTTCTAACCTGTTGCTA (site GATTGTCCTAA),0.182
6,GGTTGTCCTTGGGTTCTAACCTGTTGCTA (site GGTTGTCCTTA),0.181
7,GGTTTAGCTTGGGTTCTAACCTGTTGCTA (site GGTTTAGCTTA),0.106
8,GGTTTAGCTTGGGTTCTAACCTGTTGCTA (site TGTATAGCTTA),0.0842
9,GTAAAACCTTGGGTTCTAACCTGTTGCCT (site ATAAAACCTAG),0.281
10,GTAAAACCTTGGGTTCTAACCTGTTGCCT (site CTAAAACCTAG),0.23
11,GTAAAACCTTGGGTTCTAACCTGTTGCCT (site GTAAAACCTAG),1.06
12,GTAAAACCTTGGGTTCTAACCTGTTGCCT (site TTAAAACCTAG),0.266
13,GTAAACCCTTGGGTTCTAACCTGTTGCGG (site GTAAACCCTCC),2.33
14,GTAAACCCTTGGGTTCTAACCTGTTGCGG (site GTCAACCCTCC),0.228
15,GTAACGACTTGGGTTCTAACCTGTTGCCA (site GTAACGACTTG),1.08
16,GTAACGACTTGGGTTCTAACCTGTTGCCA (site GTGAGGACTTG),0.0765
17,GTAAGTCCTTGGGTTCTAACCTGTTGCAG (site GTAAGAACTCT),0.0477
18,GTAAGTCCTTGGGTTCTAACCTGTTGCAG (site GTAAGTCCTCT),1.97
19,GTAAGTGCTTGGGTTCTAACCTGTTGCAT (site ACCCAGTCTCC),0.174
20,GTAAGTGCTTGGGTTCTAACCTGTTGCAT (site GTAAGTGCTAT),0.829
21,GTAATCCCTTGGGTTCTAACCTGTTGCCA (site GTAATCCCTCG),0.173
22,GTAATCCCTTGGGTTCTAACCTGTTGCCA (site GTAATCCCTTG),1.32

row,Sequence,recombinant barcode read abundance (log10)
1,GTACAGACTTGGGTTCTAACCTGTTGCCT (site GTACAGACTAG),1.43
2,GTACAGACTTGGGTTCTAACCTGTTGCCT (site GTCCAGACTAG),0.0588
3,GTACAGACTTGGGTTCTAACCTGTTGCCT (site GTGCAGACTAG),0.0183
4,GTACAGACTTGGGTTCTAACCTGTTGCCT (site GTTCAGACTAG),0.078
5,GTACAGGCTTGGGTTCTAACCTGTTGCAG (site GTACAGGCTCT),0.808
6,GTACAGGCTTGGGTTCTAACCTGTTGCAG (site TGACAGGCTCT),0.178
7,GTACGCACTTGGGTTCTAACCTGTTGCCT (site AGTTAGTCTCT),0.0249
8,GTACGCACTTGGGTTCTAACCTGTTGCCT (site GTACGCACTAG),0.994
9,GTAGTAGCTTGGGTTCTAACCTGTTGCCT (site GTAGTAACTAG),0.954
10,GTAGTAGCTTGGGTTCTAACCTGTTGCCT (site GTAGTACCTAG),0.0193
11,GTAGTAGCTTGGGTTCTAACCTGTTGCCT (site GTAGTAGCTAG),2.06
12,GTAGTAGCTTGGGTTCTAACCTGTTGCCT (site GTAGTATCTAG),0.492
13,GTAGTATCTTGGGTTCTAACCTGTTGCCT (site GTAGTAACTAG),0.0297
14,GTAGTATCTTGGGTTCTAACCTGTTGCCT (site GTAGTACCTAG),0.115
15,GTAGTATCTTGGGTTCTAACCTGTTGCCT (site GTAGTAGCTAG),0.104
16,GTAGTATCTTGGGTTCTAACCTGTTGCCT (site GTAGTATCTAG),1.96
17,GTATATACTTGGGTTCTAACCTGTTGCTT (site ACGGGGCCTCG),0.0368
18,GTATATACTTGGGTTCTAACCTGTTGCTT (site GTATATACTAA),0.578
19,GTATCATCTTGGGTTCTAACCTGTTGCCT (site GTATCAACTAG),0.126
20,GTATCATCTTGGGTTCTAACCTGTTGCCT (site GTATCACCTAG),0.942
21,GTATCATCTTGGGTTCTAACCTGTTGCCT (site GTATCAGCTAG),0.0191
22,GTATCATCTTGGGTTCTAACCTGTTGCCT (site GTATCATCTAG),0.52

row,Sequence,recombinant barcode read abundance (log10)
1,GTATCGTCTTGGGTTCTAACCTGTTGCCT (site GTATCGTCTAG),1.69
2,GTATCGTCTTGGGTTCTAACCTGTTGCCT (site GTATGGTCTAC),0.111
3,GTATCTACTTGGGTTCTAACCTGTTGCCT (site GAATCTACTAG),0
4,GTATCTACTTGGGTTCTAACCTGTTGCCT (site GCATCTACTAG),0.0197
5,GTATCTACTTGGGTTCTAACCTGTTGCCT (site GGATCTACTAG),0.25
6,GTATCTACTTGGGTTCTAACCTGTTGCCT (site GTATCTACTAG),0.069
7,GTATGCCCTTGGGTTCTAACCTGTTGCTA (site GTATCCACTTA),0.273
8,GTATGCCCTTGGGTTCTAACCTGTTGCTA (site GTATGCCCTTA),1.12
9,GTATTAGCTTGGGTTCTAACCTGTTGCCG (site GAATTAGCTCC),0.128
10,GTATTAGCTTGGGTTCTAACCTGTTGCCG (site GTATTAGCTCG),1.44
11,GTCAAACCTTGGGTTCTAACCTGTTGCTG (site GTCAAACCTCA),0.974
12,GTCAAACCTTGGGTTCTAACCTGTTGCTG (site GTCAACCCTCA),0.232
13,GTCAAACCTTGGGTTCTAACCTGTTGCTG (site GTCAAGCCTCA),0.0163
14,GTCAAACCTTGGGTTCTAACCTGTTGCTG (site GTCAATCCTCA),0.0782
15,GTCAAGCCTTGGGTTCTAACCTGTTGCTG (site GTCAAACCTCA),0.0753
16,GTCAAGCCTTGGGTTCTAACCTGTTGCTG (site GTCAACCCTCA),0.184
17,GTCAAGCCTTGGGTTCTAACCTGTTGCTG (site GTCAAGCCTCA),1.23
18,GTCAAGCCTTGGGTTCTAACCTGTTGCTG (site GTCAATCCTCA),0.0295
19,GTCAAGTCTTGGGTTCTAACCTGTTGCTC (site CGACTCCCTAC),0.101
20,GTCAAGTCTTGGGTTCTAACCTGTTGCTC (site GTCAAGTCTGA),0.694
21,GTCAATTCTTGGGTTCTAACCTGTTGCCT (site GACACTTCTAG),0.109
22,GTCAATTCTTGGGTTCTAACCTGTTGCCT (site GTCAATTCTAG),0.684
